Assays:
NPY-Y1 receptor = molecular target: T1, NPY-Y1 receptor (Homo sapiens, UniProt P25929); experiment: Studies of binding with SK-N-MC cells (displacement of [^125 I]-Bolton-Hunter-NPY); settings: SK-N-MC cells expressing the human Y1-receptor, 3 hours at ambient temperature
T1 construct: SK-N-MC cells (expressing the human Y1 -receptor); endogenous in cells; host or cells: SK-N-MC (human cell line), whole cells in suspension
T1 sequence (P25929 1-384): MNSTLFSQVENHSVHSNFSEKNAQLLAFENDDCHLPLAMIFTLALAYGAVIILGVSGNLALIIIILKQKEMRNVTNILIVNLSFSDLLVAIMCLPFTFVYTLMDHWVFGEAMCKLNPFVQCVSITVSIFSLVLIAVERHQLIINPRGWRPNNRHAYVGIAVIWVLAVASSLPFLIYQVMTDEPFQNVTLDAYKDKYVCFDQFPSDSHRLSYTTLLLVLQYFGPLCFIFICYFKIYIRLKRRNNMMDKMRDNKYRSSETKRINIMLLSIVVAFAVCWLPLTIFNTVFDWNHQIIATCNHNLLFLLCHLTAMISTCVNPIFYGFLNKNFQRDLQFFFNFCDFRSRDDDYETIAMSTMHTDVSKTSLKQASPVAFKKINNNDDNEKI
Experimental: A. Studies of binding with SK-N-MC cells (expressing the human Y1 -receptor)
Incubation is ended by centrifuging (10 minutes at 3000×gand 4° C.). After washing once with PBS, the radioactivity of the pellet is measured in a gamma counter. […] The proportion of non-specific binding is defined as that radioactivity which is bound in the presence of 1 μM NPY. The IC50 values of the unlabelled test substances are determined graphically.

NPY activity = experiment: NPY-antagonism in vitro (isolated perfused rat kidney); settings: inhibition of NPY (1 μM bolus) induced pressure increase, 5 minute infusion of compound
Experimental: B. NPY-antagonism in vitro
Male rats (CHbb: THOM, 300 to 350 g) are given heparin (100 IU, i.v.) and the animals are then killed by a blow to the back of the neck. The abdomen is opened along the centre of the body and the left kidney is removed after the insertion of catheters in the renal artery, renal vein and ureter. The isolated kidney is immediately perfused with a modified Krebs-Ringer solution having the following composition (4 ml/minute):
A mixture of 95% O2 /5% CO2 is passed through the solution which is kept at a temperature of 37° C. The perfusion pressure is measured continuously using a pressure gauge. After a 60 minute stabilisation period the perfusion rate is adjusted so as to obtain a perfusion pressure of approximately 100 mm Hg. After a further 30 minutes the experiment is started and NPY (1 μM) is administered as a bolus (0.1 ml) at 15 minute intervals until the pressure increase observed reaches a constant value. The compounds to be tested are given in the form of a continuous infusion over a period of 5 minutes and then NPY is injected. After a 30 minute wash-out period the next highest concentration of test substance is investigated. 3 to 5 different concentrations of the particular compound are tested on each occasion. Concentration/activity curves can be obtained by plotting the percentage inhibition of the NPY activity against the logarithm of the concentration (mol/l) of the compound.

[1] = tested on: NPY-induced blood pressure effects; experiment: In vivo NPY-antagonism (pithed rats); settings: Rattus norvegicus, iv, 1 min, inhibition of increase in diastolic blood pressure by NPY (10 μg/kg, i.v.), NPY given one minute after test substance, read-out: pID50 (the source's name) (converted)
Experimental: C. In vivo NPY-antagonism
Male rats of normal blood pressure (Chbb:THOM, 300 to 350 g) are anaesthetised with sodium hexobarbital (150 mg/kg, i.p.). After intubation of the trachea the animals are pithed by introducing a blunt needle through the eye into the spinal bone marrow channel. The animals are ventilated with oxygen-rich ambient air using a respiratory pump (20 strokes/minute). A cannula is inserted in the left carotid artery and the arterial blood pressure is measured using a pressure gauge (Braun Melsungen Combitrans) connected to a recording device. For injection purposes a catheter is placed in the left jugular vein through which heparin is administered (200 IU/kg, i.v.). After the blood pressure has been stabilised, the animals are given 2 bolus injections of NPY (10 μg/kg, i.v.) at intervals of 15 minutes. The average increase in diastolic blood pressure is taken as the reference value (=100%). The test substances are injected in increasing doses (4 to 6 doses) at intervals of 15 minutes. One minute after administration of the test substance, NPY is administered.
The antagonistic effect of the test substances is determined by plotting the percentage inhibition of the NPY-induced blood pressure effects against the logarithm of the concentration of active substance.

Row | SMILES | IC50 (NPY-Y1 receptor) [nM] | further results
1 | N=C(N)c1cccc(CC(NC(=O)C(c2ccccc2)c2ccccc2)C(=O)NCc2ccc(O)cc2)c1 (stereo not drawn) [F] | 11.3 | pIC50 (NPY activity): 7.70 mol/l; ED50 [1]: 0.151 µmol/kg
2 | N=C(N)NCCC[C@@H](NC(=O)C(c1ccccc1)c1ccccc1)C(=O)NCc1ccc(CO)cc1 [D] | 13.5 | 
3 | O=C(Nc1ccc2ccccc2c1)NC(CCCNc1ncc[nH]1)C(=O)NCc1ccc(O)cc1 (stereo not drawn) [N] | 85.5 | 
4 | CC1(C)NC(=O)N(Cc2ccc(CNC(=O)[C@@H](CCCNC(=N)N)NC(=O)C(c3ccccc3)c3ccccc3)cc2)C1=O [L] | 26.8 | 
5 | N=C(N)CCCCC(NC(=O)C(c1ccccc1)c1ccccc1)C(=O)NCc1ccc(O)cc1 (stereo not drawn) [P] | 39 | 
6 | COc1ccc(CNC(=O)C(CCCNC(=N)N)NC(=O)C(c2ccccc2)c2ccccc2)cc1 (stereo not drawn) [K] | 32 | pIC50 (NPY activity): 6.70 mol/l; ED50 [1]: 0.331 µmol/kg
7 | O=C(NC(CCCNc1ncc[nH]1)C(=O)NCc1ccc(O)cc1)c1ccc2ccccc2c1 (stereo not drawn) [M] | 80.5 | 
8 | Cc1cc(CNC(=O)C(CCCNC(=N)N)NC(=O)C(c2ccccc2)c2ccccc2)ccc1O (stereo not drawn) [E] | 10 | 
9 | CN(Cc1ccc(O)cc1)C(=O)[C@@H](CCCNC(=N)N)NC(=O)C(c1ccccc1)c1ccccc1 [G] | 25.3 | 
10 | O=C(NCc1ccc(O)cc1)C(CCCNc1ncc[nH]1)NC(=O)C(c1ccccc1)c1ccccc1 (stereo not drawn) [H] | 18 | 
11 | N=C(N)NCCC[C@@H](NC(=O)C(c1ccccc1)c1ccccc1)C(=O)NCc1ccc(CCO)cc1 [B] | 7.7 | 
12 | N=C(N)NCCC[C@@H](NC(=O)C(c1ccccc1)c1ccccc1)C(=O)NCc1ccc(CN)cc1.O=C(O)C(F)(F)F.O=C(O)C(F)(F)F [Example 128, (R)-N-[[4-(Aminomethyl)phenyl]methyl]-N^2-(diphenylacetyl)-argininamide-bis-(trifluoroacetate)] |  | solubility in dichloromethane (Solubility; dichloromethane): readily soluble; solubility in dimethylsulphoxide (Solubility; dimethylsulphoxide): readily soluble; solubility in methanol (Solubility; methanol): readily soluble; solubility in water (Solubility; water): readily soluble
13 | O=C(NCc1ccc(O)cc1)C(Cc1ccc(C2=NCCN2)cc1)NC(=O)C(c1ccccc1)c1ccccc1 (stereo not drawn) [O] | 207 | 
14 | N=C(N)NCCC[C@@H](NC(=O)C(c1ccc(Br)cc1)c1ccc(Br)cc1)C(=O)NCc1ccc(O)cc1 [A] | 1.8 | 
15 | N=C(N)NCCC[C@@H](NC(=O)C(c1ccccc1)c1ccccc1)C(=O)NCc1ccc(O)cc1 [C] |  | pIC50 (NPY activity): 7.15 mol/l; ED50 [1]: 0.186 µmol/kg
16 | Cc1cc(CNC(=O)C(CCCNC(=N)N)NC(=O)C(c2ccccc2)c2ccccc2)cc(C)c1O (stereo not drawn) [I] | 26 | 
